From BindingDB's records for patent US9546164 (Genentech Inc, 2017)

Target: Sodium channel protein type 9 subunit alpha (Homo sapiens, UniProt Q15858)
Experiment: Radioligand Binding Assay (EP) (In vitro Assay)
Conditions: pH 7.4; 25 °C
Description: Binding of this radioligand was preformed in 5 mL borosilicate glass test tubes at room temperature. […] Non-specific binding was determined in the presence of 1 μM unlabelled compound. […] In 360 μL, membranes were incubated with 100 pM [3H]compound and increasing concentrations of Test Compound. Non-specific binding was defined in the presence of 1 μM unlabelled compound. Reactions were transferred and filtered through 96-well glass fiber/C filter plates presoaked with 0.5% polyethylene imine. […] Bound radioactivity was determined by liquid scintillation counting.

Sodium channel protein type 9 subunit alpha, sequence (Q15858 whole entry): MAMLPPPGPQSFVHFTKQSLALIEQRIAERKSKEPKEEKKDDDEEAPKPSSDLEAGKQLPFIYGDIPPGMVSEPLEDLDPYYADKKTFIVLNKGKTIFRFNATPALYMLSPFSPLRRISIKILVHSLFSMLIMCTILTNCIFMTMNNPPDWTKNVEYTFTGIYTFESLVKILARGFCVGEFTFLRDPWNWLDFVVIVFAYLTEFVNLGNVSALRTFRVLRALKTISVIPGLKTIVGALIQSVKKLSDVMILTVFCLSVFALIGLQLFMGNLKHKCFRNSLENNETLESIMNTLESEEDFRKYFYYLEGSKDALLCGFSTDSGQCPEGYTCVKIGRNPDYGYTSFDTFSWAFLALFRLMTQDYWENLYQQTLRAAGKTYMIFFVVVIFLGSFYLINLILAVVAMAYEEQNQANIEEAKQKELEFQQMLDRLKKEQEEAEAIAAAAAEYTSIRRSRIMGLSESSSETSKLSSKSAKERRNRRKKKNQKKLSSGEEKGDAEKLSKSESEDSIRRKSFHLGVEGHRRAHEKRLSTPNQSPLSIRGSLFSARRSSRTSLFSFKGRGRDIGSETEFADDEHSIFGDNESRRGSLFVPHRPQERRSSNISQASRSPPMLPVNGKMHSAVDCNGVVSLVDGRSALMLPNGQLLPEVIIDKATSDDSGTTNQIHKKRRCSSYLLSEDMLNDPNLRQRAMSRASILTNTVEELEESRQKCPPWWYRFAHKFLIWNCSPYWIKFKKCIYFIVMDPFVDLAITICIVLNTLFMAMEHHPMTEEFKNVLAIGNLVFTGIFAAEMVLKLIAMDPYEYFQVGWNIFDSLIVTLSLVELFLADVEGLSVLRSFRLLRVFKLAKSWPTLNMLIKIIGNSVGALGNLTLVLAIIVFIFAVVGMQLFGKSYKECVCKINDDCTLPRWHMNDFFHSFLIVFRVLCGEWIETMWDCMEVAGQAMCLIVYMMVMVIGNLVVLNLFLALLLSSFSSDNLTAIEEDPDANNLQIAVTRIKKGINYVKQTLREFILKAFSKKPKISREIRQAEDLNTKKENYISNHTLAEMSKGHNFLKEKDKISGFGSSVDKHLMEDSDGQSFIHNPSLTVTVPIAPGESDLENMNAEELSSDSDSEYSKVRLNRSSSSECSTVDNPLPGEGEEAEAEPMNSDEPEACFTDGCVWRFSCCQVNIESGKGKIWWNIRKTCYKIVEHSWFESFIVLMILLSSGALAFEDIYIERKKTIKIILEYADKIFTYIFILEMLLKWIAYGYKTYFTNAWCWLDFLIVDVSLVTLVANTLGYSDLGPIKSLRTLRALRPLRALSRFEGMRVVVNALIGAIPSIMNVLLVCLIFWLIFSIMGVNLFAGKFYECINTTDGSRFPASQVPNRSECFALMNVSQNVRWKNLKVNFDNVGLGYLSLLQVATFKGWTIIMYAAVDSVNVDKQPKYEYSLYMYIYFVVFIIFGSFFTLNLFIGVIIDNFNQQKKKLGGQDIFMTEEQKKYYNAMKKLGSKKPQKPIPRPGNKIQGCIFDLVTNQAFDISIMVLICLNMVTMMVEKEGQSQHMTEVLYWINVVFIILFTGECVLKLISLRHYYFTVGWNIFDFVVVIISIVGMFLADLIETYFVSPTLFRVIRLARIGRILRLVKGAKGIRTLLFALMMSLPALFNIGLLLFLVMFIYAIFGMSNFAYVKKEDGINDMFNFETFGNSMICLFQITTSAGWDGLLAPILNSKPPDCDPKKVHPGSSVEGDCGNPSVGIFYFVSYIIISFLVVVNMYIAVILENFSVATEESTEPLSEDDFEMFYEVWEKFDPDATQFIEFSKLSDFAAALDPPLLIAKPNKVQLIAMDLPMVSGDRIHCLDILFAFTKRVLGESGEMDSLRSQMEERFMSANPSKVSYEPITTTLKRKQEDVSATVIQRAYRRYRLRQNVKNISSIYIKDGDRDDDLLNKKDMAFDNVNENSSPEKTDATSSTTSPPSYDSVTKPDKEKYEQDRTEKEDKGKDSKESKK

Structure (SMILES) | IC50 [nM]
CC(C)(C)OC(=O)N1CCC(COc2cc(F)c(C(=O)NS(C)(=O)=O)cc2Cl)CC1 [US9546164, 78] | 490
CS(=O)(=O)NC(=O)c1cc(C2CC2)c(OCC2(F)CN(C(c3ccccc3)c3ccccc3)C2)cc1F [US9546164, 67] | 7.9
O=C(NS(=O)(=O)C1CC1)c1cc(C2CC2)c(OCC2CCN(S(=O)(=O)c3ccc4ccccc4c3)CC2)cc1F [US9546164, 389] | 8.8
CS(=O)(=O)NC(=O)c1cc(C2CC2)c(OCC2(F)CCN(Cc3cc(Cl)ccc3C(F)(F)F)CC2)cc1F [US9546164, 348] | 4.5
CC1(COc2cc(F)c(C(=O)NS(C)(=O)=O)cc2C2CC2)CCN(Cc2cc(C(F)(F)F)ccc2C(F)(F)F)CC1 [US9546164, 107] | 2.1
CS(=O)(=O)NC(=O)c1cc(C2CC2)c(OCC2CCN(S(=O)(=O)c3cc(F)c(F)c(F)c3)CC2)cc1F [US9546164, 380] | 40.9
O=C(NS(=O)(=O)N1CCC1)c1cc(C2CC2)c(OCC2CC3CCC(C2)N3C(c2ccccc2)c2ccccc2)cc1F (stereo not drawn) [US9546164, 49] | 4.3
CC(c1ccc(OC(F)(F)F)cc1)N1CC(COc2cc(F)c(C(=O)NS(C)(=O)=O)cc2C2CC2)C1 (stereo not drawn) [US9546164, 157] | 35.1
